For orientation: Ki means the equilibrium dissociation constant of an inhibitor or competing ligand from its target.

The values that follow come from patent US10844032B2, “Substituted benzofuran, benzothiophene and indole Mcl-1 inhibitors” (Vanderbilt University, priority 2012, dated 2020).

Where only a bound is given, the exact number is not on record here.

For the first assay, the target named is recombinant Mcl-1 (residues 172-327) (Homo sapiens (Human), UniProt Q07820). Briefly: Bak peptide fluorescence polarization anisotropy competition assay, Mcl-1. The class given is binding. Conditions: Table 2, Ki range; FITC-Bak peptide 10 nM, Mcl-1 14 nM; read-out: Ki for inhibition of Mcl-1. Background: In fluorescence polarisation assays a small probe gives low polarisation when free and higher when bound to something large.
recombinant Mcl-1 (residues 172-327), sequence (Q07820 172-327): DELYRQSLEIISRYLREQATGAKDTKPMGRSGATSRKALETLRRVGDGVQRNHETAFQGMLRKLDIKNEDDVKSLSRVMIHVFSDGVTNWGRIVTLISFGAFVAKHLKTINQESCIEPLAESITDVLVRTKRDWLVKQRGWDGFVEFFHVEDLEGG
`Cc1cc(OCCCc2c(C(=O)NS(=O)(=O)c3ccccc3)[nH]c3c(-c4c(C)noc4C)cccc23)cc(C)c1Cl` [Example 88, 3-(3-(4-chloro-3,5-dimethylphenoxy)propyl)-7-(3,5-dimethylisoxazol-4-yl)-N-(phenylsulfonyl)-1H-indole-2-carboxamide]: the inhibition constant Ki is at most 100 nM.
As for `Cc1ccncc1-c1cccc2c(CCCOc3cc(C)c(Cl)c(C)c3)c(C(=O)NS(=O)(=O)c3ccccc3)[nH]c12` [Example 89, 3-(3-(4-chloro-3,5-dimethylphenoxy)propyl)-7-(4-methylpyridin-3-yl)-N-(phenylsulfonyl)-1H-indole-2-carboxamide], the inhibitory constant (Ki) was at most 100 nM.
On the same count and under the same terms, the same measure for `COc1ccncc1-c1cccc2c(CCCOc3cc(C)c(Cl)c(C)c3)c(C(=O)NS(=O)(=O)c3ccccc3)[nH]c12` [Example 90, 3-(3-(4-chloro-3,5-dimethylphenoxy)propyl)-7-(4-methoxypyridin-3-yl)-N-(phenylsulfonyl)-1H-indole-2-carboxamide]: at most 100 nM; for `Cc1cc(OCCCc2c(C(=O)NS(=O)(=O)c3ccccc3)[nH]c3c(-c4ccnc5ccccc45)cccc23)cc(C)c1Cl` [Example 92, 3-(3-(4-chloro-3,5-dimethylphenoxy)propyl)-N-(phenylsulfonyl)-7-(quinolin-4-yl)-1H-indole-2-carboxamide]: at most 100 nM; for `Cc1cc(OCCCc2c(C(=O)NS(=O)(=O)c3ccccc3)[nH]c3c(-c4ccsc4C)cccc23)cc(C)c1Cl` [Example 98, 3-(3-(4-chloro-3,5-dimethylphenoxy)propyl)-7-(2-methylthiophen-3-yl)-N-(phenylsulfonyl)-1H-indole-2-carboxamide]: at most 100 nM.
Still for that read-out and setting: the same measure for `Cc1ccsc1-c1cccc2c(CCCOc3cc(C)c(Cl)c(C)c3)c(C(=O)NS(=O)(=O)c3ccccc3)[nH]c12` [Example 99, 3-(3-(4-chloro-3,5-dimethylphenoxy)propyl)-7-(3-methylthiophen-2-yl)-N-(phenylsulfonyl)-1H-indole-2-carboxamide]: at most 100 nM; for `Cc1cc(OCCCc2c(C(=O)NS(=O)(=O)c3ccccc3)[nH]c3c(-c4ccnn4C)cccc23)cc(C)c1Cl` [Example 100, 3-(3-(4-chloro-3,5-dimethylphenoxy)propyl)-7-(1-methyl-1H-pyrazol-5-yl)-N-(phenylsulfonyl)-1H-indole-2-carboxamide]: at most 100 nM.
Regarding `Cc1cc(OCCCc2c(C(=O)NS(=O)(=O)c3ccccc3)[nH]c3c(-c4cccn4C)cccc23)cc(C)c1Cl` [Example 101, 3-(3-(4-chloro-3,5-dimethylphenoxy)propyl)-7-(1-methyl-1H-pyrrol-2-yl)-N-(phenylsulfonyl)-1H-indole-2-carboxamide], the inhibition constant Ki was at most 100 nM.

The assay is the same for the next values; noted with them: read-out: Ki for inhibition of Mcl-1.
For `O=C(NS(=O)(=O)C1CC1)c1sc2ccccc2c1CCCOc1cccc2ccccc12` [Example 67, N-(cyclopropylsulfonyl)-3-(3-(naphthalen-1-yloxy)propyl)benzo[b]thiophene-2-carboxamide], the Ki lay in the range of 1000 to 9990 nM.
As to `Cc1cc(OCCCc2c(C(=O)NS(C)(=O)=O)sc3ccccc23)cc(C)c1Cl` [Example 68, 3-(3-(4-chloro-3,5-dimethylphenoxy)propyl)-N-(methylsulfonyl)benzo[b]thiophene-2-carboxamide], the inhibition constant Ki is 1000 to 9990 nM.
On the same count and under the same terms, the same measure for `Cc1cc(OCCCc2c(C(=O)NS(=O)(=O)C3CC3)sc3ccccc23)cc(C)c1Cl` [Example 69, 3-(3-(4-chloro-3,5-dimethylphenoxy)propyl)-N-(cyclopropylsulfonyl)benzo[b]thiophene-2-carboxamide]: 1000 to 9990 nM.
Take `Cc1cc(OCCCc2c(C(=O)NS(=O)(=O)Cc3ccccc3)sc3ccccc23)cc(C)c1Cl` [Example 70, N-(benzylsulfonyl)-3-(3-(4-chloro-3,5-dimethylphenoxy)propyl)benzo[b]thiophene-2-carboxamide]: the Ki lay in the range of 501 to 999 nM.
The same measure, in the same setting: the same measure for `Cc1cc(OCCCc2c(C(=O)NS(C)(=O)=O)sc3cccc(Cl)c23)cc(C)c1Cl` [Example 71, 4-chloro-3-(3-(4-chloro-3,5-dimethylphenoxy)propyl)-N-(methylsulfonyl)benzo[b]thiophene-2-carboxamide]: 1000 to 9990 nM; for `Cc1cc(OCCCc2c(C(=O)NS(C)(=O)=O)sc3cc(Cl)ccc23)cc(C)c1Cl` [Example 72, 6-chloro-3-(3-(4-chloro-3,5-dimethylphenoxy)propyl)-N-(methylsulfonyl)benzo[b]thiophene-2-carboxamide]: 1000 to 9990 nM.
The same measure, in the same setting: the same measure for `O=C(O)c1sc2c(NCc3ccccc3)cccc2c1CCCOc1cccc2ccccc12` [Example 73, 7-(benzylamino)-3-(3-(naphthalen-1-yloxy)propyl)benzo[b]thiophene-2-carboxylic acid]: 1000 to 9990 nM.
In the case of `CS(=O)(=O)NC(=O)c1[nH]c2ccccc2c1CCCOc1cccc2c1CCC2` [Example 74, 3-(3-((2,3-dihydro-1H-inden-4-yl)oxy)propyl)-N-(methylsulfonyl)-1H-indole-2-carboxamide], the Ki lay in the range of 1000 to 9990 nM.
The same measure, in the same setting: the same measure for `CS(=O)(=O)NC(=O)c1[nH]c2cc(Cl)ccc2c1CCCOc1cccc2c1CCCC2` [Example 75, 6-chloro-N-(methylsulfonyl)-3-(3-((5,6,7,8-tetrahydronaphthalen-1-yl)oxy)propyl)-1H-indole-2-carboxamide]: 501 to 999 nM.
For the molecule `CS(=O)(=O)NC(=O)c1[nH]c2cc(Cl)ccc2c1CCCOc1ccc(Cl)c2ccccc12` [Example 76, 6-chloro-3-(3-((4-chloronaphthalen-1-yl)oxy)propyl)-N-(methylsulfonyl)-1H-indole-2-carboxamide], the inhibitory constant (Ki) lay within 301 to 500 nM.
Take `Cc1cc(OCCCc2c(C(=O)NS(C)(=O)=O)[nH]c3cc(C(F)(F)F)ccc23)ccc1Cl` [Example 77, 3-(3-(4-chloro-3-methylphenoxy)propyl)-N-(methylsulfonyl)-6-(trifluoromethyl)-1H-indole-2-carboxamide]: the Ki is 301 to 500 nM.
Still for that read-out and setting: the same measure for `Cc1cc(OCCCc2c(C(=O)NS(C)(=O)=O)[nH]c3cc(C(F)(F)F)ccc23)cc(C)c1Cl` [Example 78, 3-(3-(4-chloro-3,5-dimethylphenoxy)propyl)-N-(methylsulfonyl)-6-(trifluoromethyl)-1H-indole-2-carboxamide]: 301 to 500 nM; for `CS(=O)(=O)NC(=O)c1[nH]c2cc(C(F)(F)F)ccc2c1CCCOc1cccc2ccccc12` [Example 79, N-(methylsulfonyl)-3-(3-(naphthalen-1-yloxy)propyl)-6-(trifluoromethyl)-1H-indole-2-carboxamide]: 301 to 500 nM.
The same measure, in the same setting: the same measure for `Cc1cc(OCCCc2c(C(=O)NS(C)(=O)=O)[nH]c3cccc(C(F)(F)F)c23)ccc1Cl` [Example 80, 3-(3-(4-chloro-3-methylphenoxy)propyl)-N-(methylsulfonyl)-4-(trifluoromethyl)-1H-indole-2-carboxamide]: 101 to 299 nM.
As to `CS(=O)(=O)NC(=O)c1[nH]c2cccc(C(F)(F)F)c2c1CCCOc1cccc2ccccc12` [Example 81, N-(methylsulfonyl)-3-(3-(naphthalen-1-yloxy)propyl)-4-(trifluoromethyl)-1H-indole-2-carboxamide], the inhibition constant (Ki) is 301 to 500 nM.
Still for that read-out and setting: the same measure for `Cc1cc(OCCCc2c(C(=O)NS(C)(=O)=O)[nH]c3cccc(C(F)(F)F)c23)cc(C)c1Cl` [Example 82, 3-(3-(4-chloro-3,5-dimethylphenoxy)propyl)-N-(methylsulfonyl)-4-(trifluoromethyl)-1H-indole-2-carboxamide]: 101 to 299 nM; for `Cc1cc(OCCCc2c(C(=O)NS(C)(=O)=O)[nH]c3c(Br)cccc23)cc(C)c1Cl` [Example 83, 7-bromo-3-(3-(4-chloro-3,5-dimethylphenoxy)propyl)-N-(methylsulfonyl)-1H-indole-2-carboxamide]: 301 to 500 nM.
Same read-out and setting: the same measure for `Cc1ccccc1-c1cccc2c(CCCOc3cc(C)c(Cl)c(C)c3)c(C(=O)NS(C)(=O)=O)[nH]c12` [Example 84, 3-(3-(4-chloro-3,5-dimethylphenoxy)propyl)-N-(methylsulfonyl)-7-(o-tolyl)-1H-indole-2-carboxamide]: 101 to 299 nM.
Take `COc1ccccc1-c1cccc2c(CCCOc3cc(C)c(Cl)c(C)c3)c(C(=O)NS(C)(=O)=O)[nH]c12` [Example 85, 3-(3-(4-chloro-3,5-dimethylphenoxy)propyl)-7-(2-methoxyphenyl)-N-(methylsulfonyl)-1H-indole-2-carboxamide]: the inhibition constant Ki was in the range of 101 to 299 nM.
Turning to `Cc1cc(OCCCc2c(C(=O)NS(=O)(=O)c3ccccc3)[nH]c3c(-c4ccco4)cccc23)cc(C)c1Cl` [Example 86, 3-(3-(4-chloro-3,5-dimethylphenoxy)propyl)-7-(furan-2-yl)-N-(phenylsulfonyl)-1H-indole-2-carboxamide], the inhibition constant (Ki) lay in the range of 101 to 299 nM.
As for `Cc1cc(OCCCc2c(C(=O)NS(=O)(=O)c3ccccc3)[nH]c3c(-c4ccoc4)cccc23)cc(C)c1Cl` [Example 87, 3-(3-(4-chloro-3,5-dimethylphenoxy)propyl)-7-(furan-3-yl)-N-(phenylsulfonyl)-1H-indole-2-carboxamide], the Ki was in the range of 101 to 299 nM.
Still for that read-out and setting: the same measure for `Cc1cc(OCCCc2c(C(=O)NS(=O)(=O)c3ccccc3)[nH]c3c(-c4cccnc4)cccc23)cc(C)c1Cl` [Example 93, 3-(3-(4-chloro-3,5-dimethylphenoxy)propyl)-N-(phenylsulfonyl)-7-(pyridin-3-yl)-1H-indole-2-carboxamide]: 101 to 299 nM; for `Cc1cc(OCCCc2c(C(=O)NS(=O)(=O)c3ccccc3)[nH]c3c(-c4ccncc4)cccc23)cc(C)c1Cl` [Example 94, 3-(3-(4-chloro-3,5-dimethylphenoxy)propyl)-N-(phenylsulfonyl)-7-(pyridin-4-yl)-1H-indole-2-carboxamide]: 101 to 299 nM.
`Cc1cc(OCCCc2c(C(=O)NS(=O)(=O)c3ccccc3)[nH]c3c(-c4cccs4)cccc23)cc(C)c1Cl` [Example 95, 3-(3-(4-chloro-3,5-dimethylphenoxy)propyl)-N-(phenylsulfonyl)-7-(thiophen-2-yl)-1H-indole-2-carboxamide]: the Ki was in the range of 101 to 299 nM.
On the same count and under the same terms, the same measure for `Cc1cc(OCCCc2c(C(=O)NS(=O)(=O)c3ccccc3)[nH]c3c(-c4ccsc4)cccc23)cc(C)c1Cl` [Example 96, 3-(3-(4-chloro-3,5-dimethylphenoxy)propyl)-N-(phenylsulfonyl)-7-(thiophen-3-yl)-1H-indole-2-carboxamide]: 101 to 299 nM.
